Like-named read-outs stand apart in the source and are kept apart here. Where no end group is shown, it is not given here.

In data set [1] the test system is NFAT-dependent edema induced by LPS. Kind of data set: LPS-induced paw edema model. Particulars: subcutaneous pretreatment 2 hours prior to LPS in the paw. In kind it is in vivo, mouse. As to the method: FIG. 4. Inhibition of the NFAT pathway in the formation of edema of the paw in response to LPS. The animals were pretreated, or not, with the nanoconstructs (MYTS-VIVIT) or FK-506 (approximately 2 h) and were then treated locally with LPS.
To assess whether the nanoparticles of the present invention are able to inhibit in vivo the formation of LPS-induced edema, the mice were pretreated, or not, with the nanoconstructs of example 1 or FK506 as control sub-cutaneously for 2 hours prior to the injection of LPS in the paw.

For the next data set, the system named is inflammatory arthritis. The data set is described as follows: Arthritis induced by anti-collagen antibodies/LPS. Particulars: treated on days −1, 0, +1, +3, +6, +9, +12. In kind it is in vivo, C57BL6 mice. The protocol:
FIG. 5. Inhibition of the development of arthritis. FIG. 5A: the mice were treated endovenously, or were not treated, at −1, 0, +1, +3, +6, +9, and +12 days with the nanoconstructs (MYTS-VIVIT) or with nanoconjugates MYTS-VEET (a peptide similar to VIVIT in which the sequence has been modified, thus losing specificity for Cn). Day 0 represents the start of the procedure of inducing arthritis. The clinical points indicative of the severity of the arthritis were assessed on the days indicated. In FIG. 5B, photographs showing arthritis on the seventh day in a treated mouse and in an untreated mouse are shown.
Rheumatoid arthritis (AR) is a chronic, debilitating systemic autoimmune disease characterized by an immunological inflammatory reaction of the mesenchymal tissue and of the synovial fluid accompanied by polyarticular synovitis. Over time, it leads to the progressive destruction of the articular and periarticular structures. […] To verify whether the nanoconstructs of the present invention are able to inhibit the development of inflammatory arthritis, a model of arthritis induced by anti-collagen antibody of the IL/LPS type was used. In particular, six C57BL6 mice were treated on days −1, 0, +1, +3, +6, +9, +12 with the nanoconstructs of example 1.

In data set [2] the test system is transduction signal pathway of NFAT. The data set is described as follows: GFP+ Ly6G+ spleen neutrophils in IL-2/GFP mutant mice after LPS. In kind it is in vivo, mouse. Particulars: i.v. two hours before LPS injection. As to the method: FIG. 3. The NFAT pathway is active in the neutrophils. Mice genetically modified by IL-2/GFP were treated, or not, with MYTS-VIVIT and were then injected intravenously two hours after with LPS. The bars represent the percentage of GFP+Ly6G^+ spleen neutrophils […] after the treatment with LPS. In this mouse model, GFP was inserted in the second exon of IL-2 and therefore has the same regulation of IL-2.
Mutant mice (obtained from laboratories of Ronald H. Schwartz, NIH Bethesda) were used for this experiment. In this mouse model, the GFP protein was inserted into the second exon of the gene IL-2, and therefore had the same regulation of IL-2. As mentioned before, IL-2 is a marker of NFAT activation. If the mice genetically modified with regard to IL-2/GFP are treated with LPS, a significant percentage of GFP+ neutrophils (Ly6G+ cells) can be measured in the spleen two hours after treatment. To verify whether the nanoconstructs of the present invention are able to inhibit the signal pathway of NFAT in vivo, mutant mice were injected endovenously with the nanoconstructs as prepared in example 1 two hours before the injection of LPS.

For a further data set, the system named is NF-kB. The data set is described as follows: TNFα production (ELISA) by LPS-stimulated DCs derived from bone marrow, marker of NF-kB pathway. In kind it is cell-based, mouse. Particulars: 2 h pretreatment, then LPS, 18 hours. As to the method:
(§1) FIG. 2. Inhibition of the transduction of the NFAT signals by means of the MYTS-VIVIT nanoconstructs in DCs derived from bone marrow. The DCs were pre-treated, or not, with the indicated quantities of MYTS-VIVIT for two hours and then activated with LPS for 18 hours. The quantities of IL-2 and TNFα in the supernatant were measured using the ELISA method.
(§2) In order to assess whether nanoconstructs are able to inhibit the transduction signal pathway of NFAT, the following experiments were carried out in vitro. After exposure to LPS, the DCs derived from bone marrow were able to produce various inflammatory cytokines, including IL-2 and TNFα. IL-2 was strictly NFAT-dependent, whereas the production of TNFα was NF-kB-dependent and NFAT-independent. IL-2 and TNFα are therefore valid markers respectively of the activation pathway of NFAT and NF-kB. After two hours of pretreatment with the nanoconstructs obtained as described in example 1, the DCs derived from bone marrow were stimulated with LPS and the quantity of released cytokines was measured using the ELISA method 18 hours later.
(§3) DCs produce IL-2 in an NFAT-dependent manner if stimulated with LPS. To assess the efficacy of the VIVIT peptide, DCs derived from bone marrow were transduced with a sequence coding the VIVIT peptide fused with the GFP protein through use of a retroviral vector.
Background: ELISA stands for enzyme-linked immunosorbent assay.

Data set [3] deals with transduction signal pathway of NFAT. Kind of data set: IL-2 production (ELISA) by LPS-stimulated DCs derived from bone marrow, marker of NFAT pathway. Particulars: 18 hours; for inhibition of NFAT activity (IL-2 release, ELISA): peptide 25 uM pretreatment, LPS 100 ng/ml. The data set is classed as cell-based, mouse. As to the method: as §1, §2, §3
Since DCs are phagocyte cells, we firstly used the non-modified peptide, assuming that this could reach the cell cytosol once entered into the endosomal compartment. We then carried out co-cultures of DCs with the VIVIT peptide, and the inhibition of NFAT was analyzed by measuring the production of IL-2 following stimulation with LPS. […] A modified VIVIT peptide was then assessed, to which a […] 11-arginine tail had been attached. It has, in fact, been described in the literature that this modification can allow entry into the cells.

Data set [4] has as its system skin transplant rejection. The data set is described as follows: Skin transplant rejection model (male skin into female mice). In kind it is in vivo, mouse. As to the method:
FIG. 6. Inhibition of skin transplant rejection. Male skin was grafted in female mice. The mice were then injected endovenously, or not, with the nanoconstructs (MYTS-VIVIT or MYTS-VEET) on days −1, 0, +1, +3, +6, +9, +12, and +15. In addition, the mice were then left without treatment for a further 20 days. The boxes M in M represent the untreated controls and show the skin transplant from male mouse to male mouse. […] The boxes M in F represent the skin transplant from male mouse to female mouse without treatment with the nanoconstructs. The scar of the rejection is clearly visible on day 30. The rejection can also be seen in boxes M in F (male into female) treated with the control MYTS-VEET nanoconstructs. Vice versa, in the boxes representing the transplant from male to female with MYTS-VIVIT treatment (M in F+MYTS-VIVIT), the acceptance of the graft is clearly visible. The bar chart beneath represents a quantification of the results of the experiment. To summarize, the transplant was accepted in 80% of cases treated with the MYTS-VIVIT nanoconstructs, whereas it was rejected in 100% of untreated cases and in 80% of cases treated with the control MYTS-VEET nanoconstruct.
To verify whether the nanoconstructs of the present invention are able to inhibit transplant rejection, a skin transplant model was used. […]

In the next data set the test system is calcineurin (Cn). Particulars: cited from earlier work.
The next data set relates to NFAT. Particulars: cited from earlier work.
In data set [5] the test system is NF-kB transcription factor. Particulars: cited from earlier work.
The next data set has as its system neurons. Particulars: i.v., 1 hour, magnet applied to the skull. The protocol:
Then, a staining of the neurons was carried out with the fluorescent probe NeuroTrace (which stains the substance Nissi, which is abundant in neuronal cells and is formed from ribosomal RNA associated with the endoplasmic reticulum).

On to “MYTS-VIVIT (H-CGGGKMAGPVIVITGPHEE-OH; not fully specified; printed as NH2—CGGGKMAGPVIVITGPHEE-COOH)”, for which the “formation of LPS-induced paw edema” value in data set [1] is “significantly inhibited”. Besides, the “development of arthritis (clinical points)” value in the data set with inflammatory arthritis was “inhibit the development of arthritis very effectively”. For the same substance, the “percentage of GFP+ Ly6G+ spleen neutrophils” value in data set [2] is recorded as “strong impact on the ability of the neutrophils to produce GFP”. The “TNFα released (ELISA)” value in the data set with NF-kB is on record as “not the production of TNFα”. The “IL-2 released (ELISA)” value in [3] (2 h pretreatment, then LPS) is “completely block IL-2”. Further, the skin transplants accepted in data set [4] (i.v. treatment from day −1, after four weeks / day 30) is 80%; in data set [4] (i.v. treatment from day −1, after four weeks / day 30, listed as nanoconstructs bearing the VIVIT peptide), 90%.

Turning to “NH2—CGGGKMAGPVIVITGPHEE-COOH (H-CGGGKMAGPVIVITGPHEE-OH; listed as Homo sapiens)”, the “inhibition of NFAT activity (IL-2 release, ELISA)” value is “unable to penetrate into the cytosol of the DCs and to block the activity of NFATs” in data set [3]; “did not make it possible to interfere with the activity of NFAT” in [3] (listed as free, non-modified VIVIT peptide).

As to Val-Ile-Val-Ile-Thr [VIVIT], in the data set on calcineurin (Cn), the “affinity for Cn” value is “increased affinity for Cn”. The “inhibition of NFAT (gene reporter)” value with NFAT was “effectively inhibits NFAT and its activity”. In addition, in data set [5], the “inhibition of NF-kB (gene reporter)” value is on record as “not the activity of the NF-kB transcription factor”.

For enfuvirtide, the “accumulation of AF660-labeled drug in neurons (confocal microscopy)” value is “only in the case of the drug conjugated to the MYTS nanoparticles” with neurons (listed as free enfuvirtide) and “traces of fluorescence cannot be seen” in the data set on neurons (listed as labeled drug not conjugated to the nanoparticles).

On to “peptide with an 11-arginine tail: peptide with sequence SEQ ID NO:1 conjugated with an 11-arginine tail (CGGGKMAGPVIVITGPHEE; also: 11-arginine tail conjugated, end not given here; listed as Homo sapiens)”, for which the “inhibition of NFAT activity (IL-2 release, ELISA)” value in data set [3] is “unable to penetrate into the cytosol of the DCs and to block the activity of NFATs”; in data set [3] (listed as modified VIVIT peptide), “not possible to observe any inhibition of the NFAT pathway”.

These data come from US20150224061A1, “NANOCONSTRUCTS WITH PHARMACOLOGICAL ACTIVITY” (UNIVERSITA' DEGLI STUDI DI MILANO - BICOCCA, priority 2012, published 2015).
